Test results from US5159085A, “2-anilino phenylacetic acid derivatives as inhibitors of PLA2 and lipoxygenase” (American Home Products Corporation, priority 1991, dated 1992).
Where two headings read alike, the source gives them in different places.

Experiments:
[1] = target: T1, human synovial fluid PLA2 (Homo sapiens, UniProt P14555); assay: In vitro isolated phospholipase A2 assay, human synovial fluid PLA2; assay type: biochemical
T1 construct: Purified human synovial fluid; from tissue; host or cells: human synovial fluid
T1 sequence (P14555 21-144): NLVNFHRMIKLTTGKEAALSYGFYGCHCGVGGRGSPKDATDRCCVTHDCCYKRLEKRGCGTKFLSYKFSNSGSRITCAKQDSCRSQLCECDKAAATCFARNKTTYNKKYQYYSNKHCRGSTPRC
Experimental: The compounds of the invention are tested in an in vitro isolated phospholipase A2 assay to determine the ability of the test compounds to inhibit the release of arachidonic acid from an arachidonic acid-containing substrate by the action of phospholipase A2 enzyme from human and non-human sources.
(§1) This assay is carried out as follows:
Into a 15 mL polypropylene tube are added the following:
*pre-incubate at room temperature 30 min prior to substrate addition.
^5 Stock 10 mM prepared in dimethyl sulfoxide. Make 1:2 dilution with
dimethyl sulfoxide and add 1 μ L to 100 μL assay tube.
^6 Two human PLA2 enzymes are used:
b) Purified human synovial fluid.
Incubate the 100 μL reaction mixture for 10 minutes at 37° C. in a shaking water bath. The reaction is terminated by the addition of 2 mL tetrahydrofuran, followed by vortexing. NH2 columns (100 μg/mL--Analytichem International) are conditioned with 0.5 mL tetrahydrofuran followed by 0.5 mL tetrahydrofuran/water (2 mL:0.1 mL, v/v).
The sample is loaded onto the columns and slowly drawn through them. The hydrolyzed arachidonic acid retained in the columns is eluted therefrom with 1 mL tetrahydrofuran/glacial acetic acid (2%). The arachidonic acid is transferred to scintillation vials and quantitated by β-counting analysis. A "total counts" sample is prepared by pipetting 25 μL ^3 H-arachidonate E. coli directly into a scintillation vial to which is added 1 mL tetrahydrofuran. 10 mL aquasol (scintillation cocktail) is added to all samples. [formula]

[2] = system: carrageenan paw edema; assay: Rat carrageenan paw edema assay; assay type: in vivo, rat (male Sprague-Dawley)
Experimental: The compounds of the invention are further tested in the rat carrageenan paw edema assay to determine their ability to inhibit the acute inflammatory response.
as §1
140-180 gm Male Sprague-Dawley rats, in groups of 6 animals are injected subcutaneously in the right paw with 0.1 ml of 1% carrageenan at zero time. Mercury plethysmographic readings (ml) of the paw are made at zero time and 3 hours later. Test compounds are suspended or dissolved in 0.5% methylcellulose and given perorally 1 hour prior to carrageenan administration.
The increase in paw volume (edema in ml) produced by the carrageenan is measured. Paw edema is calculated (3 hour volume minus zero time volume), and percent inhibition of edema is determined. Unpaired Student's t-test is used to determine statistical significance.

[3] = system: LTC4; assay: In vivo murine zymosan peritonitis assay, LTC4 (lipoxygenase pathway); design: species or system mouse (male CD-1)
Experimental: The compounds of the invention are evaluated for their ability to inhibit the lipoxygenase and/or cyclooxygenase pathways of arachidonic acid metabolism in the in vivo murine zymosan peritonitis assay.
as §1
Male CD-1 mice (8 weeks old) are placed in plastic boxes in groups of six. Animals are injected with 1 ml i.p. of either 1% zymosan in pyrogen free 0.9% saline or saline (unstimulated control). Compounds are dosed orally 1 hour prior to zymosan injection. Twenty minutes after zymosan injection, the mice are asphyxiated by CO2 inhalation and the peritoneal cavity is lavaged with 2 ml ice cold Hanks Balanced Salt Solution (HBSS) without CaCl2, MgSO4 ·7H2 O and MgCL2 ·6H2 O. Peritoneal lavage fluid from each mouse is removed by syringe and placed in 5 ml plastic test tubes put on ice and volume is noted. Preparation of samples for evaluation by ELISA is as follows: Samples are centrifuged at 800×g for 15 minutes; 1 ml of the supernatant is added to 8 ml ice cold methanol and kept at -70° C. overnight to precipitate protein; and samples are then centrifuged at 800×g for 15 minutes, followed by a drying procedure in a Savant speed vac concentrator. The samples are reconstituted with 1 ml ice cold ELISA buffer and stored at -70° C. until assayed. The assay for eicosanoids (LTC4 and 6-keto-PGF1α) is performed according to conventional ELISA procedures.
Compounds to be tested orally are suspended in 0.5% Tween 80. Compounds to be tested intraperitoneally are suspended in 0.5% methylcellulose in 0.9% saline.
The total metabolite level in lavage fluid/mouse is calculated and the significance is determined by a one-way analysis of variance with LSD comparisons to control (p≤0.05). Drug effects are expressed as a percent change from control values.

Row | SMILES | inhibition at 10 µM ([1]; read-out: % Inhibition at 10 μM HSF) [%] | % Inhibition ([2]; 0.5 mg/kg peroral) [%] | % Inhibition ([2]; 2.0 mg/kg peroral) [%] | % Inhibition ([2]; 8.0 mg/kg peroral) [%] | ED50 ([2]; Rattus norvegicus, po, 3 h) [mg/kg] | inhibition at 10 µM ([1]; 10 μM, Table IV, read-out: % Inhibition at a concentration of 10 μM, HSF) [%] | IC50 ([1]; human synovial fluid) [µM] | % Inhibition LTC4 ([3]; 50 mg/kg p.o.) [%] | % Inhibition LTC4 ([3]; 100 mg/kg p.o.) [%] | % Inhibition ([2]; 25 mg/kg peroral) [%] | % Inhibition ([2]; 50 mg/kg peroral) [%] | % Inhibition ([2]; 100 mg/kg peroral) [%]
1 | O=C(O)Cc1ccccc1Nc1c(Cl)cccc1Cl [diclofenac, reference compound] | 0 | 15 | 50 | 75 | 2.3 |  |  |  |  |  |  | 
2 | O=C(O)Cc1cc(OCc2ccc3ccccc3n2)ccc1Nc1c(Cl)cccc1Cl [Example 2, 2-[(2,6-Dichlorophenyl)amino]-5-(2-quinolylmethoxy)benzene acetic acid] |  |  |  |  |  | 47.6 | 6.3 | 47 | 78 | 63 | 58 | 66
